Read-outs that look alike come from different tables or passages of the source.
Assays:
[1] = molecular target: T1, human progesterone receptor A (PR-A) (Homo sapiens, UniProt P06401); experiment: Progesterone receptor-antagonistic action in stable transfectants of SK-N-MC cells with human PR-A and MTV-LUC reporter; assay type: cell-based; conditions: for Emax: read-out: Progesterone receptor A (PR-A) Efficacy
T1 construct: expressed in transfected cells; host or cells: SK-N-MC human neuroblastoma cells, stably transfected with pRChPR-A-neo and pMMTV-LUC
T1 sequence (P06401 1-769 isoform P06401-2): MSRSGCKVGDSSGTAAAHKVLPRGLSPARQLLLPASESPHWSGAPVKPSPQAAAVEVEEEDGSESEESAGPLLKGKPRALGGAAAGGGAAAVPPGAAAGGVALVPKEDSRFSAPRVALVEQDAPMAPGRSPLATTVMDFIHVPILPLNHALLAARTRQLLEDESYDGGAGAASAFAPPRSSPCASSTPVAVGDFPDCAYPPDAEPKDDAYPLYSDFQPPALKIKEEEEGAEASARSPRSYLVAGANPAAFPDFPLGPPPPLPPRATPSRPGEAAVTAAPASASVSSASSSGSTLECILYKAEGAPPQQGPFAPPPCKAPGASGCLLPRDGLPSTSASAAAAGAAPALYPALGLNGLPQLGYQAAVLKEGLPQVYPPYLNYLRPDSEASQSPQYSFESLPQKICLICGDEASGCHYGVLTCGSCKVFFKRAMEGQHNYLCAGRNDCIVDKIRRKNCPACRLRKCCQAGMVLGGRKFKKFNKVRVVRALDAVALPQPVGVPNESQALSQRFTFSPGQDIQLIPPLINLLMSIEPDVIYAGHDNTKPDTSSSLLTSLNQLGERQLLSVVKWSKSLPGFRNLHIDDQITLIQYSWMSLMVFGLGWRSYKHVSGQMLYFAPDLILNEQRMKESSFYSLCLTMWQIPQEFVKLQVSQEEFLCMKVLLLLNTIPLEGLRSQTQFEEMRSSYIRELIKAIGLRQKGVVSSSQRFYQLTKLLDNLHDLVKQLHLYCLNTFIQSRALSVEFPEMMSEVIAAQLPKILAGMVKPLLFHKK
Method: (§1) Progesterone Receptor-Antagonistic Action in Stable Transfectants of Human Neuroblastoma Cells (SK-N-MC Cells) with the Human Progesterone A or Progesterone B Receptor and an MTV-LUC Reporter Construct
(§2) SK-N-MC cells (human neuroblastoma cells), which have been stably transfected with plasmids, which express the human progesterone receptor B (pRChPR-B-neo) or the human progesterone receptor A (pRChPR-A-neo) and a reporter construct (pMMTV-LUC), were incubated for 24 hours either in the absence (negative control) or in the presence of increasing amounts of the respective test compound (0.01 nmol/l, 0.1 nmol/l, 1 nmol/l, 10 nmol/l, 100 nmol/l and 1 μmol/l), in order to determine the agonistic efficacy. As positive control of reporter gene induction, the cells were treated with the synthetic gestagen promegestone (0.01 nmol/l, 0.1 nmol/l, 1 nmol/l, 10 nmol/l, 100 nmol/l and 1 μmol/l). For determination of the antagonistic activity, the cells were treated with 0.1 nmol/l promegestone and additionally with increasing amounts of the respective test compound (0.01 nmol/l, 0.1 nmol/l, 1 nmol/l, 10 nmol/l, 100 nmol/l and 1 μmol/l). The activity of the LUC reporter gene (LUC=luciferase) was determined in the cell lysates and was measured as RLU (relative light units). All measured values are given as percentage efficacy and as EC50 or IC50 concentrations.
(§3) 11β-(4-Acetylphenyl)-20,20,21,21,21-pentafluoro-17-hydroxy-19-nor-17α-pregna-4,9-dien-3-one and 20,20,21,21,21-pentafluoro-17-hydroxy-11β-[4-(hydroxyacetyl)phenyl]-19-nor-17α-pregna-4,9-dien-3-one, very potent and therefore preferred examples from WO98/34947 and WO2008/058767, were tested as comparative compounds along with the test compound.

[2] = molecular target: T2, human progesterone receptor B (PR-B) (Homo sapiens, UniProt P06401); experiment: Progesterone receptor-antagonistic action in stable transfectants of SK-N-MC cells with human PR-B and MTV-LUC reporter; assay type: cell-based; conditions: for Emax: read-out: Progesterone receptor B (PR-B) Efficacy
T2 construct: expressed in transfected cells; host or cells: SK-N-MC human neuroblastoma cells, stably transfected with pRChPR-B-neo and pMMTV-LUC
T2 sequence (P06401 1-933): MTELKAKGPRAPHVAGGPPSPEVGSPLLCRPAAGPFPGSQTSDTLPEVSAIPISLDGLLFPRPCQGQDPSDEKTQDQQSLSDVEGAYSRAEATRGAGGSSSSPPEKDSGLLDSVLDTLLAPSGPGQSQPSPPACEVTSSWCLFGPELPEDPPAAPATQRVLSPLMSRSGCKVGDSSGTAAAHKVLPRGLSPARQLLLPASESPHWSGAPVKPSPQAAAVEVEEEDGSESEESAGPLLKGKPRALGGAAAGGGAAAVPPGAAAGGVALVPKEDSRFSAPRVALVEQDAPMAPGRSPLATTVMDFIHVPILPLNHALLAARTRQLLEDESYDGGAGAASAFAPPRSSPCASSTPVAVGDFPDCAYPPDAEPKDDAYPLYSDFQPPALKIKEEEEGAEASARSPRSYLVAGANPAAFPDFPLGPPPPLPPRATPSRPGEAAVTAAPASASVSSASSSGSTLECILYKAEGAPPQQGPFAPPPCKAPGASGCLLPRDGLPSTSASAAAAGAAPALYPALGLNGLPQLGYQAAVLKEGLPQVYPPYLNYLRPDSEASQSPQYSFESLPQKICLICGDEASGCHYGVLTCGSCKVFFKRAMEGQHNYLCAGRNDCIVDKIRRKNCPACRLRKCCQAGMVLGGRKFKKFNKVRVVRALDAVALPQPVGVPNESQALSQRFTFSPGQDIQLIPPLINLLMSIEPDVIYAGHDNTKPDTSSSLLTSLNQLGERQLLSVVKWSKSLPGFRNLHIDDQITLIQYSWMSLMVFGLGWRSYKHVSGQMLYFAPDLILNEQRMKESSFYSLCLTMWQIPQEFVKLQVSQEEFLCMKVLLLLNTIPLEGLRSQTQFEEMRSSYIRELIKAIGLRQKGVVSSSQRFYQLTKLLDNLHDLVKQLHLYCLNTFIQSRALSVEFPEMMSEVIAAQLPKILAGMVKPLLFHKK
Method: as §1, §2, §3

[3] = antagonistic activity against 0.1 nmol/l promegestone, SK-N-MC cells, 24 hours, LUC reporter, read-out: Progesterone receptor A (PR-A) Potency IC50
[4] = antagonistic activity against 0.1 nmol/l promegestone, SK-N-MC cells, 24 hours, LUC reporter, read-out: Progesterone receptor B (PR-B) Potency IC50
[5] = antagonistic efficacy against 0.1 nmol/l promegestone, SK-N-MC cells, 24 hours

IC50 [1, 3] [nM]	IC50 [2, 4] [nM]	Emax [1, 5] [%]	Emax [2, 5] [%]	SMILES	Emax ([1]; SK-N-MC, 24 h) [%]	Emax ([2]; SK-N-MC, 24 h) [%]	IC50 [1] [nM]	IC50 [2] [nM]
0.01	0.01	100	100	Cc1ccc(S(=O)(=O)N=S(C)(=O)c2ccc(-c3ccc([C@H]4C[C@@]5(C)C(CC[C@@]5(O)C(F)(F)C(F)(F)F)C5CCC6=CC(=O)CCC6=C54)cc3)cc2)cc1 (mixture of isomers) [Example 11, N-[{4′-[(11β,17β)-17-hydroxy-3-oxo-17-(pentafluoroethyl)estra-4,9-dien-11-yl]biphenyl-4-yl}(RS)(methyl)oxido-λ^6-sulphanylidene]-4-methylbenzene sulphonamide]	–	–	–	–
0.2	0.23	100	100	C[C@]12C[C@H](c3ccc(SCc4ccccc4)cc3)C3=C4CCC(=O)C=C4CCC3C1CC[C@@]2(O)C(F)(F)C(F)(F)F (stereo partly drawn) [Example 6, (11β,17β)-11-[4-(benzylsulphanyl)phenyl]-17-hydroxy-17-(pentafluoroethyl)estra-4,9-dien-3-one]	–	–	–	–
–	–	100	100	CSc1ccc(-c2ccc([C@H]3C[C@@]4(C)[C@@H](CC[C@@]4(O)C(F)(F)C(F)(F)F)[C@@H]4CCC5=CC(=O)CCC5=C43)cc2)cc1 [Example 9, (11β,17β)-17-Hydroxy-11-[4′-(methylsulphanyl)biphenyl-4-yl]-17-(pentafluoroethyl)estra-4,9-dien-3-one]	–	–	–	–
0.08	0.08	100	100	C[C@]12C[C@H](c3ccc(-c4ccc(S(C)(=N)=O)cc4)cc3)C3=C4CCC(=O)C=C4CCC3C1CC[C@@]2(O)C(F)(F)C(F)(F)F (stereo partly drawn) [Example 12, (11β,17β)-17-hydroxy-11-[4′-(RS-methylsulphonimidoyl)biphenyl-4-yl]-17-(pentafluoroethyl)estra-4,9-dien-3-one]	–	–	–	–
0.072	0.072	100	100	C[C@]12C[C@H](c3ccc(-c4ccc(S)cc4)cc3)C3=C4CCC(=O)C=C4CC[C@H]3[C@@H]1CC[C@@]2(O)C(F)(F)C(F)(F)F [Example 13, (11β,17β)-17-hydroxy-17-(pentafluoroethyl)-11-(4′-sulphanylbiphenyl-4-yl)estra-4,9-dien-3-one]	–	–	–	–
–	–	100	100	CN(C)S(=O)(=O)c1ccc(-c2ccc([C@H]3C[C@@]4(C)[C@@H](CC[C@@]4(O)C(F)(F)C(F)(F)F)[C@@H]4CCC5=CC(=O)CCC5=C43)cc2)cc1 [Example 14, 4′-[(11β,17β)-17-hydroxy-3-oxo-17-(pentafluoroethyl)estra-4,9-dien-11-yl]-N,N-dimethylbiphenyl-4-sulphonamide]	–	–	–	–

Second part, the compound before the results:

SMILES	IC50 [1, 3] [nM]	IC50 [2, 4] [nM]	Emax [1, 5] [%]	Emax [2, 5] [%]	Emax ([1]; SK-N-MC, 24 h) [%]	Emax ([2]; SK-N-MC, 24 h) [%]	IC50 [1] [nM]	IC50 [2] [nM]
C[S+]([O-])c1ccc([C@H]2C[C@@]3(C)[C@@H](CC[C@@]3(O)C(F)(F)C(F)(F)F)[C@@H]3CCC4=CC(=O)CCC4=C32)cc1 (mixture of isomers) [Example 3, (11β,17β)-17-Hydroxy-11-{4-[(RS)-methylsulphinyl]phenyl}-17-(pentafluoroethyl)estra-4,9-dien-3-one]	0.11	0.12	–	–	100	100	–	–
Cc1ccc(S(=O)(=O)N=S(C)(=O)c2ccc([C@H]3C[C@@]4(C)C(CC[C@@]4(O)C(F)(F)C(F)(F)F)C4CCC5=CC(=O)CCC5=C43)cc2)cc1 (mixture of isomers) [Example 7, N-[{4-[(11β,17β)-17-hydroxy-3-oxo-17-(pentafluoroethyl)estra-4,9-dien-11-yl]phenyl}(RS)(methyl)oxido-λ^6-sulphanylidene]-4-methylbenzene sulphonamide]	–	–	100	100	–	–	1	0.8
CC(=O)c1ccc(C2CC3(C)C(CCC3(O)C(F)(F)C(F)(F)F)C3CCC4=CC(=O)CCC4=C23)cc1 (stereo not drawn) [11β-(4-Acetylphenyl)-20,20,21,21,21-pentafluoro-17-hydroxy-19-nor-17α-pregna-4,9-dien-3-one, reference compound]	–	–	100	100	–	–	–	–
C[C@]12C[C@H](c3ccc(C(=O)CO)cc3)C3=C4CCC(=O)C=C4CC[C@H]3[C@@H]1CC[C@@]2(O)C(F)(F)C(F)(F)F [20,20,21,21,21-pentafluoro-17-hydroxy-11β-[4-(hydroxyacetyl)phenyl]-19-nor-17α-pregna-4,9-dien-3-one, reference compound]	–	–	–	–	100	100	–	–
CSc1ccc([C@H]2C[C@@]3(C)[C@@H](CC[C@@]3(O)C(F)(F)C(F)(F)F)[C@@H]3CCC4=CC(=O)CCC4=C32)cc1 [Example 1, (11β,17β)-17-hydroxy-11-[4-(methylsulphanyl)phenyl]-17-(pentafluoroethyl)estra-4,9-dien-3-one]	–	0.012	–	–	100	100	–	–
CCSc1ccc([C@H]2C[C@@]3(C)C(CC[C@@]3(O)C(F)(F)C(F)(F)F)C3CCC4=CC(=O)CCC4=C32)cc1 (stereo partly drawn) [Example 2, (11β,17β)-11-[4-(ethylsulphanyl)phenyl]-17-hydroxy-17-(pentafluoroethyl)estra-4,9-dien-3-one]	–	–	100	100	–	–	–	–
CCS(=O)(=O)c1ccc([C@H]2C[C@@]3(C)C(CC[C@@]3(O)C(F)(F)C(F)(F)F)C3CCC4=CC(=O)CCC4=C32)cc1 (stereo partly drawn) [Example 5, (11β,17β)-11-[4-(ethylsulphonyl)phenyl]-17-hydroxy-17-(pentafluoroethyl)estra-4,9-dien-3-one]	0.1	0.09	100	100	–	–	–	–
C[C@]12C[C@H](c3ccc(S(C)(=N)=O)cc3)C3=C4CCC(=O)C=C4CCC3C1CC[C@@]2(O)C(F)(F)C(F)(F)F (stereo partly drawn) [Example 8, (11β,17β)-17-Hydroxy-11-[4-(RS-methylsulphonimidoyl)phenyl]-17-(pentafluoroethyl)estra-4,9-dien-3-one]	0.9	0.9	–	–	100	100	–	–

Reference: patent US8278469B2, “17-hydroxy-17-pentafluoroethyl-estra-4,9(10)-dien-11-aryl derivatives, method of production thereof and use thereof for the treatment of diseases” (Bayer Pharma Aktiengesellschaft, priority 2009, dated 2012)
